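Compound exposure: 48 hours, 5 concentrations, 96-well plates. The concentration for full growth arrest is given as TGI.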
What was measured:
Experiment in all cases: NCI tumour cell line growth inhibition, 48 h
MCF7 breast = system: MCF7 breast
SK-OV-3 ovarian = system: SK-OV-3 ovarian
NCI-H23 lung = system: NCI-H23 lung
HCT-15 colon = system: HCT-15 colon
P388/ADR leukemia = system: P388/ADR leukemia
SNB-19 CNS = system: SNB-19 CNS
NCI/ADR-RES ovarian = system: NCI/ADR-RES ovarian
DLD-1 colon = system: DLD-1 colon
HOP-92 NSCLC = system: HOP-92 NSCLC
SF-295 CNS = system: SF-295 CNS
HT29 colon = system: HT29 colon
SF-268 CNS = system: SF-268 CNS
SNB-75 CNS = system: SNB-75 CNS
RXF 393 renal = system: RXF 393 renal
LOX IMVI melanoma = system: LOX IMVI melanoma
CCRF-CEM leukemia = system: CCRF-CEM leukemia
IGROV1 ovarian = system: IGROV1 ovarian
NCI-H522 lung = system: NCI-H522 lung
U251 CNS = system: U251 CNS
HCT-116 colon = system: HCT-116 colon
CAKI-1 renal = system: CAKI-1 renal
KM20L2 colon = system: KM20L2 colon
DMS 273 small cell lung = system: DMS 273 small cell lung
MALME-3M melanoma = system: MALME-3M melanoma
EKVX NSCLC = system: EKVX NSCLC
NCI-H226 lung = system: NCI-H226 lung
UO-31 renal = system: UO-31 renal
SK-MEL-28 melanoma = system: SK-MEL-28 melanoma
HOP-18 NSCLC = system: HOP-18 NSCLC
SN12K1 renal = system: SN12K1 renal
HL-60(TB) leukemia = system: HL-60(TB) leukemia
XF 498 CNS = system: XF 498 CNS
SK-MEL-2 melanoma = system: SK-MEL-2 melanoma
SF-539 CNS = system: SF-539 CNS
OVCAR-4 ovarian = system: OVCAR-4 ovarian
HOP-62 NSCLC = system: HOP-62 NSCLC
DMS 114 small cell lung = system: DMS 114 small cell lung
A498 renal = system: A498 renal
NCI-H460 lung = system: NCI-H460 lung
UACC-62 melanoma = system: UACC-62 melanoma
M19-MEL melanoma = system: M19-MEL melanoma
KM12 colon = system: KM12 colon
K-562 leukemia = system: K-562 leukemia
MOLT-4 leukemia = system: MOLT-4 leukemia
A549 NSCLC = system: A549 NSCLC
UACC-257 melanoma = system: UACC-257 melanoma
SNB-78 CNS = system: SNB-78 CNS
P388 leukemia = system: P388 leukemia
SN12C renal = system: SN12C renal
RPMI-8226 leukemia = system: RPMI-8226 leukemia
OVCAR-8 ovarian = system: OVCAR-8 ovarian
HCC-2998 colon = system: HCC-2998 colon
SW-620 colon = system: SW-620 colon
OVCAR-5 ovarian = system: OVCAR-5 ovarian
OVCAR-3 ovarian = system: OVCAR-3 ovarian
COLO 205 colon = system: COLO 205 colon
SK-MEL-5 melanoma = system: SK-MEL-5 melanoma
ACHN renal = system: ACHN renal
RXF-631 renal = system: RXF-631 renal
LXFL 529 NSCLC = system: LXFL 529 NSCLC
TK-10 renal = system: TK-10 renal
SR leukemia = system: SR leukemia
M14 melanoma = system: M14 melanoma
786-0 renal = system: 786-0 renal

## O=C(O)CCCCCCC[C@@H]1S[C@H]1CCCCCCO
MCF7 breast
  TGI: > 100 µM
SK-OV-3 ovarian
  TGI: > 100 µM
NCI-H23 lung
  TGI: > 100 µM
HCT-15 colon
  TGI: > 100 µM
P388/ADR leukemia
  TGI: > 100 µM
SNB-19 CNS
  TGI: > 100 µM
NCI/ADR-RES ovarian
  TGI: > 100 µM
DLD-1 colon
  TGI: > 100 µM
HOP-92 NSCLC
  TGI: > 94.4 µM
SF-295 CNS
  TGI: > 100 µM
HT29 colon
  TGI: > 100 µM
SF-268 CNS
  TGI: > 100 µM
SNB-75 CNS
  TGI: > 100 µM
RXF 393 renal
  TGI: > 100 µM
LOX IMVI melanoma
  TGI: > 100 µM
CCRF-CEM leukemia
  TGI: > 100 µM
IGROV1 ovarian
  TGI: > 100 µM
NCI-H522 lung
  TGI: > 100 µM
U251 CNS
  TGI: > 100 µM
HCT-116 colon
  TGI: > 100 µM
CAKI-1 renal
  TGI: > 100 µM
KM20L2 colon
  TGI: > 100 µM
DMS 273 small cell lung
  TGI: > 100 µM
MALME-3M melanoma
  TGI: > 100 µM
EKVX NSCLC
  TGI: > 100 µM
NCI-H226 lung
  TGI: > 100 µM
UO-31 renal
  TGI: > 100 µM
SK-MEL-28 melanoma
  TGI: > 100 µM
HOP-18 NSCLC
  TGI: > 100 µM
SN12K1 renal
  TGI: > 100 µM
HL-60(TB) leukemia
  TGI: > 100 µM
XF 498 CNS
  TGI: > 100 µM
SK-MEL-2 melanoma
  TGI: > 100 µM
SF-539 CNS
  TGI: > 100 µM
OVCAR-4 ovarian
  TGI: > 100 µM
HOP-62 NSCLC
  TGI: > 100 µM
DMS 114 small cell lung
  TGI: > 100 µM
A498 renal
  TGI: > 100 µM
NCI-H460 lung
  TGI: > 100 µM
UACC-62 melanoma
  TGI: > 100 µM
M19-MEL melanoma
  TGI: > 100 µM
KM12 colon
  TGI: > 100 µM
K-562 leukemia
  TGI: > 100 µM
MOLT-4 leukemia
  TGI: > 100 µM
A549 NSCLC
  TGI: > 100 µM
UACC-257 melanoma
  TGI: > 100 µM
SNB-78 CNS
  TGI: > 100 µM
P388 leukemia
  TGI: > 100 µM
SN12C renal
  TGI: > 100 µM
RPMI-8226 leukemia
  TGI: > 100 µM
OVCAR-8 ovarian
  TGI: > 100 µM
HCC-2998 colon
  TGI: > 100 µM
SW-620 colon
  TGI: > 100 µM
OVCAR-5 ovarian
  TGI: > 100 µM
OVCAR-3 ovarian
  TGI: > 100 µM
COLO 205 colon
  TGI: > 100 µM
SK-MEL-5 melanoma
  TGI: > 100 µM

## CC1C(=O)OC2CC[N+]3(CC(=O)c4ccc(Br)cc4)CC=C(COC(=O)C(C)(O)C1(C)O)C23 (stereo not drawn)
MCF7 breast
  TGI: > 375 µM
SK-OV-3 ovarian
  TGI: > 375 µM
NCI-H23 lung
  TGI: > 375 µM
HCT-15 colon
  TGI: > 375 µM
P388/ADR leukemia
  TGI: > 375 µM
SNB-19 CNS
  TGI: > 375 µM
NCI/ADR-RES ovarian
  TGI: > 375 µM
DLD-1 colon
  TGI: > 375 µM
HOP-92 NSCLC
  TGI: > 375 µM
SF-295 CNS
  TGI: > 375 µM
HT29 colon
  TGI: > 375 µM
SF-268 CNS
  TGI: > 375 µM
SNB-75 CNS
  TGI: > 375 µM
RXF 393 renal
  TGI: > 375 µM
LOX IMVI melanoma
  TGI: > 375 µM
CCRF-CEM leukemia
  TGI: > 375 µM
IGROV1 ovarian
  TGI: > 375 µM
NCI-H522 lung
  TGI: > 375 µM
U251 CNS
  TGI: > 375 µM
HCT-116 colon
  TGI: > 375 µM
CAKI-1 renal
  TGI: > 375 µM
KM20L2 colon
  TGI: > 266 µM
DMS 273 small cell lung
  TGI: > 375 µM
MALME-3M melanoma
  TGI: > 375 µM
EKVX NSCLC
  TGI: > 375 µM
NCI-H226 lung
  TGI: > 375 µM
UO-31 renal
  TGI: > 375 µM
SK-MEL-28 melanoma
  TGI: > 375 µM
HOP-18 NSCLC
  TGI: > 375 µM
SN12K1 renal
  TGI: > 375 µM
HL-60(TB) leukemia
  TGI: > 375 µM
XF 498 CNS
  TGI: > 375 µM
SK-MEL-2 melanoma
  TGI: > 375 µM
SF-539 CNS
  TGI: > 375 µM
OVCAR-4 ovarian
  TGI: > 375 µM
HOP-62 NSCLC
  TGI: > 375 µM
DMS 114 small cell lung
  TGI: > 375 µM
A498 renal
  TGI: > 375 µM
NCI-H460 lung
  TGI: > 375 µM
UACC-62 melanoma
  TGI: > 375 µM
M19-MEL melanoma
  TGI: > 375 µM
KM12 colon
  TGI: > 375 µM
K-562 leukemia
  TGI: > 375 µM
MOLT-4 leukemia
  TGI: > 375 µM
A549 NSCLC
  TGI: > 375 µM
UACC-257 melanoma
  TGI: > 375 µM
SNB-78 CNS
  TGI: > 174 µM
P388 leukemia
  TGI: > 174 µM
SN12C renal
  TGI: > 375 µM
RPMI-8226 leukemia
  TGI: > 375 µM
OVCAR-8 ovarian
  TGI: > 17.4 µM
HCC-2998 colon
  TGI: > 375 µM
SW-620 colon
  TGI: > 375 µM
OVCAR-5 ovarian
  TGI: > 375 µM
OVCAR-3 ovarian
  TGI: > 375 µM
COLO 205 colon
  TGI: > 375 µM
SK-MEL-5 melanoma
  TGI: > 375 µM

## C/C(=N\NS(=O)(=O)c1ccc(C)cc1)C(CN1CCOCC1)C(c1ccccc1)c1c(O)c2ccccc2oc1=O (stereo not drawn)
SK-OV-3 ovarian
  TGI: > 100 µM
NCI-H23 lung
  TGI: > 100 µM
HCT-15 colon
  TGI: > 100 µM
SNB-19 CNS
  TGI: > 100 µM
DLD-1 colon
  TGI: > 100 µM
HOP-92 NSCLC
  TGI: > 100 µM
SF-295 CNS
  TGI: > 100 µM
ACHN renal
  TGI: > 100 µM
RXF-631 renal
  TGI: > 100 µM
HT29 colon
  TGI: > 100 µM
SF-268 CNS
  TGI: > 100 µM
SNB-75 CNS
  TGI: > 100 µM
RXF 393 renal
  TGI: > 100 µM
LOX IMVI melanoma
  TGI: > 100 µM
CCRF-CEM leukemia
  TGI: > 100 µM
IGROV1 ovarian
  TGI: > 100 µM
LXFL 529 NSCLC
  TGI: > 100 µM
NCI-H522 lung
  TGI: > 100 µM
U251 CNS
  TGI: > 100 µM
HCT-116 colon
  TGI: > 100 µM
CAKI-1 renal
  TGI: > 100 µM
KM20L2 colon
  TGI: > 100 µM
MALME-3M melanoma
  TGI: > 100 µM
TK-10 renal
  TGI: > 100 µM
EKVX NSCLC
  TGI: > 100 µM
NCI-H226 lung
  TGI: > 100 µM
UO-31 renal
  TGI: > 100 µM
HOP-18 NSCLC
  TGI: > 100 µM
SR leukemia
  TGI: 56.2 µM
M14 melanoma
  TGI: > 100 µM
HL-60(TB) leukemia
  TGI: 76.1 µM
XF 498 CNS
  TGI: > 100 µM
SK-MEL-2 melanoma
  TGI: > 100 µM
SF-539 CNS
  TGI: > 100 µM
OVCAR-4 ovarian
  TGI: > 100 µM
HOP-62 NSCLC
  TGI: > 100 µM
A498 renal
  TGI: > 100 µM
NCI-H460 lung
  TGI: > 100 µM
UACC-62 melanoma
  TGI: > 100 µM
M19-MEL melanoma
  TGI: > 100 µM
786-0 renal
  TGI: > 100 µM
KM12 colon
  TGI: > 100 µM
K-562 leukemia
  TGI: > 100 µM
A549 NSCLC
  TGI: > 100 µM
UACC-257 melanoma
  TGI: > 100 µM
SNB-78 CNS
  TGI: > 100 µM
SN12C renal
  TGI: > 100 µM
RPMI-8226 leukemia
  TGI: > 100 µM
OVCAR-8 ovarian
  TGI: > 100 µM
SW-620 colon
  TGI: > 100 µM
OVCAR-5 ovarian
  TGI: > 100 µM
OVCAR-3 ovarian
  TGI: > 100 µM
COLO 205 colon
  TGI: > 100 µM
SK-MEL-5 melanoma
  TGI: > 100 µM

From PubChem BioAssay (NCI)
